From patent US9161925B2, “Therapeutic uses of beta-3 adrenergic receptor agonist derivatives in particular to modulate apoptosis” (SANOFI, priority 2007, dated 2015)

Legend:
Type in all cases: cell-based, human
caspase-3 transcripts = test: Real time quantitative RT-PCR of caspase-3 transcripts in myometrial tissue; conditions: LPS alone 2.08±0.63
Method: (§1) Myometrial biopsies obtained from women with uncomplicated pregnancies were immediately transferred in sterile Dubelcco's Modified Eagle Medium (DMEM) and washed twice with sterile Phosphate Buffer Saline (PBS). Biopsies were cut into small strips, each being placed in a 24-well plate containing 2 ml of culture medium DMEM, without the use of antibiotics. Strips were then incubated at 37° C. with 5% CO2 for 48 h in order to allow cytokine levels to return to basal values (Fortunato S J, et al. Am J Reprod Immunol 1994; 32: 184-187).
In order to reproduce with LPS (Escherichia coli 055:B5) the findings on myometrial samples obtained from women with chorioamnionitis, myometrial strips were incubated with three different concentrations of LPS (50 ng/ml, 1 μg/ml and 10 μg/ml) at three different times (8 h, 24 h, 48 h). In a second set of experiments, in order to assess the role of TNF in LPS-induced apoptosis in myometrial tissue, the strips were incubated with LPS 10 μg/ml for 48 h with or without anti TNF antibodies (0.6 μg/ml) (Human TNF alpha/TNFSF1A antibody, R&D systems Europe, Lille, France, the concentration of the antibody used was chosen based on the manufacturer's recommendations). […]
Total RNA was prepared from 5 myometrial tissues obtained from 5 different women, using Trizol solution (Life Technologies, Groningen, The Netherlands) according to the manufacturer's instructions. […] Real time quantitative PCR analyses were performed using 25 ng of reverse transcribed total RNA with 200 nM of both sense and anti sense primers in a final volume of 25 μl using the SYBR Green PCR jumpstart reagent (Sigma, Saint Louis, Mo., USA) in an iCycler iQ real time detection system instrument (Bio-Rad, Marnes-la-Coquette, France). PCR products were also analyzed on edithium bromide stained agarose gel to ensure that a single amplicon of the expected size was indeed obtained. […]

IL6 = test: Cytometric Bead Array, IL6 in supernatants of myometrial strips
Method: as §1
(§2) In order to reproduce with LPS (Escherichia coli 055:B5) the findings on myometrial samples obtained from women with chorioamnionitis, myometrial strips were incubated with three different concentrations of LPS (50 ng/ml, 1 μg/ml and 10 μg/ml) at three different times (8 h, 24 h, 48 h). […]
(§3) Cytokines measurements were determined by Cytometric Bead Array (CBA; Bender MedSystems). Supernatants of 5 myometrial strips were incubated with labeled capture beads and detection reagent for 3 h in the dark at room temperature, and analyzed with a flow cytometer (FACSCalibur; BD Biosciences) by using the respective CBA Analysis software (BD Biosciences) and Bender MedSystems software. Cytokine standards for quantification (pg/mL) as well as the blanks were handled in the same manner as the samples. […]

BAX protein = test: Western blot of BAX in myometrial strips stimulated with LPS
Method: as §1, with “184-187). […]” for “184-187).”
(§4) Snap-frozen myometrial tissues were homogenized with Ultra-Turrax in homogenization buffer [10 mM Tris-HCl (pH 7.4), 1 mM EDTA, […] leupeptine, 2 mM Pefabloc]. After an initial centrifugation at 500×g for 15 min at 4° C., total protein supernatant content was determined by the Bradford method with BSA as standard. […] Immunoreactive proteins were detected by chemiluminescence (ECL™ detection reagents, RPN2105, Amersham, USA) and exposure to a X-ray film (Hyperfilm™, Amersham Bioscience, USA). The intensities of the bands were analyzed densitometrically using the NIH Image 1.62 program and normalized with intensity of bands obtained with monoclonal antibody to Glyceraldehyde 3-Phosphate Dehydrogenase (GAPDH) used as protein loading control. Results are expressed as the mean±s.e.m. in Arbitrary Density Unit (A.D.U).

IL8 = test: Cytometric Bead Array, IL8 in supernatants of myometrial strips
Method: as §1, §2, §3

BCL2 protein = test: Western blot of BCL2 in myometrial strips stimulated with LPS
Method: as §1, with “184-187). […]” for “184-187).”
as §4

[1] = tested on: cleaved caspase-3 protein; test: Western blot of cleaved caspase-3 in myometrial strips stimulated with LPS
Method: as §1, with “184-187). […]” for “184-187).”
as §4

[2] = tissues not stimulated with LPS (data not shown)
[3] = Compound A 10^-7, 10^-6, 10^-5 M with LPS 10 μg/ml 48 h, ANOVA P<0.01, FIG. 4

## CCOC(=O)c1ccc([C@H]2CC[C@H](NC[C@H](O)COc3ccc(O)c(NS(C)(=O)=O)c3)CC2)cc1.Cl [Compound A, Ethyl-4-{trans-4-[((2S)-2-hydroxy-3-{4-hydroxy-3[(methylsulfonyl)-amino]phenoxy}propyl)amino]cyclohexyl}benzoate hydrochloride]
caspase-3 transcripts; LPS with Compound A 10^-5 M
  caspase-3 transcripts, fold increase normalized to GAPDH compared with controls: 0.93±0.41 fold
caspase-3 transcripts; LPS with Compound A 10^-6 M
  caspase-3 transcripts, fold increase normalized to GAPDH compared with controls: 0.84±0.53 fold
caspase-3 transcripts; LPS with Compound A 10^-7 M
  caspase-3 transcripts, fold increase normalized to GAPDH compared with controls: 1.17±0.81 fold
IL6; Compound A with LPS, concentration dependent, not statistically significant, FIG. 5
  effect on LPS-induced IL6: decreased
IL6; [2]
  effect by itself on IL6 release: not effect
BAX protein; [3]
  antagonism of LPS-induced BAX protein up-regulation: antagonized in a concentration dependant manner
BAX protein; [2]
  effect by itself on BAX expression: no effect
IL8; Compound A with LPS, concentration dependent, ANOVA P=0.01, FIG. 5
  effect on LPS-induced IL8: decreased
IL8; [2]
  effect by itself on IL8 release: not effect
BCL2 protein; [3]
  antagonism of LPS-induced BCL2 protein down-regulation: antagonized in a concentration dependant manner
BCL2 protein; [2]
  effect by itself on BCL2 expression: no effect
[1]; Compound A 10^-7, 10^-6, 10^-5 M with LPS 10 μg/ml 48 h, concentration dependent, ANOVA P<0.001, FIG. 3
  antagonism of LPS-induced changes in cleaved caspase-3 expression: significantly antagonize
[1]; [2]
  effect by itself on cleaved caspase-3 expression: no effect
